Experimental findings from US9682925B2, “Cyclopropaneamine compound” (TAKEDA PHARMACEUTICAL COMPANY LIMITED, priority 2011, dated 2017) are described below.

A word on the IC50: it is the concentration that gives 50% inhibition.

What all share (type): biochemical
The target in one assay is T1, human LSD1(171-852) (Homo sapiens, UniProt O60341).
T1 construct: to give hLSD1(171-852) purified product; made in house; host or cells: Escherichia coli C43(DE3) pLysS
Description: Measurement of LSD1 inhibitory activity (time-resolved fluorescence, biotin-histone H3 mono methylated K4 peptide). As to conditions: read-out: LSD1 IC50 value. Here is the method: When the turbidity reached 600 Klett units, the culture temperature was changed to 16° C., IPTG having a final concentration of 0.5 mM was added to induce expression, and the cells were cultured further for 21 hr. The culture medium was centrifuged at 9,000 g for 10 min, and Escherichia coli pellets were recovered.
Escherichia coli pellets in 9 L of the culture medium were suspended in 1340 mL of an extraction buffer (PBS, 5% (V/V) Glycerol), and 6700 units of Benzonase (Merck) were added. Using Branson ultrasonic disintegrator, the suspension was disrupted by ultrasonication for 3 min, and centrifuged at 33,000 g for 20 min, and the supernatant was recovered.
(5) Measurement of LSD1 Inhibitory Activity
After reaction at room temperature for 20 min, 1 mM 2-PCPA solution (5 μL) was added to terminate the reaction. A detection solution (800 mM potassium fluoride, 0.1% BSA) containing europium-labeled antihistone H3 antibody (Wako Pure Chemical Industries, Ltd.) and Streptavidin-XL665 (Cisbio) was further added by 5 μL, and the mixture was left standing for 60 min. A time-resolved fluorescence (excitation 320 nm, emission 615 nm, 665 nm) was measured by Envision (PerkinElmer). The LSD1 inhibitory rate (%) of the test compound was calculated by the following formula. inhibitory rate (%)=(1−(test compound count−blank)÷(control−blank)×100
The count of the LSD1 enzyme reaction mixture under compound non-addition conditions is indicated as control, and the count under compound non-addition and LSD1 enzyme non-addition conditions is indicated as blank.

The target of another assay is T2, MAO-A (Homo sapiens, UniProt P21397).
T2 construct: purchased Sigma-Aldrich Co. LLC
T2 sequence (P21397 1-527): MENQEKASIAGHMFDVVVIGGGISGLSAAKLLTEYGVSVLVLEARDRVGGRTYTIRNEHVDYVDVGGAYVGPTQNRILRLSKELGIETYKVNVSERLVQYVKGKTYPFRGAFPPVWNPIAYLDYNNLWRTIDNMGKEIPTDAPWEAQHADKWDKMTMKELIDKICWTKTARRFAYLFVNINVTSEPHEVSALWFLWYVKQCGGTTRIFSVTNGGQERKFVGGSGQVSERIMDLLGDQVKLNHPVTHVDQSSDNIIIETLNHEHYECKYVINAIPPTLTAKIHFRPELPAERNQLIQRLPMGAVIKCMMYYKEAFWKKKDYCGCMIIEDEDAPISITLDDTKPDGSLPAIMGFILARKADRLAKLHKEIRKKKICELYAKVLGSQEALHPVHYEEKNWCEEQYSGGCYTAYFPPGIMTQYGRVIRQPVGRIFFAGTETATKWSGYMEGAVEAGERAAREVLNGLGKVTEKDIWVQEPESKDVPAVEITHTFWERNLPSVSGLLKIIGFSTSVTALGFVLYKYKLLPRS
The experiment in a line: Measurement of MAO-A inhibitory activity (MAO-Glo Assay). As to the method:
(1) Measurement of MAO-A Inhibitory Activity
The MAO-A inhibitory activity evaluation described below followed the protocol of MAO-Glo (registered trademark) Assay of Promega KK.
(§1) A test compound dissolved in 4% DMSO was added by 12.5 μL to 25 μL reaction solution (100 mM HEPES (pH 7.5), 5% glycerol) containing 400 ng of MAO-A enzyme (Sigma-Aldrich Co. LLC.), and the mixture was reacted at room temperature for 10 min. MAO substrate (Promega KK) (160 μM) was added by 12.5 μL to start the reaction. After reaction at room temperature for 60 min, Luciferine detection reagent (Promega KK) (50 μL) was added to terminate the reaction. After reaction at room temperature for 20 min with stirring, the luminescence was measured by Envision (PerkinElmer). The MAO-A inhibitory rate (%) of the test compound was calculated by the following formula. inhibitory rate (%)=(1−(test compound count−blank)÷(control−blank)×100
The count of the MAO-A enzyme reaction mixture under compound non-addition conditions is indicated as control, and the count under compound non-addition and MAO-A enzyme non-addition conditions is indicated as blank.

The target in a further assay is T3, MAO-B (Homo sapiens, UniProt P27338).
T3 construct: purchased Sigma-Aldrich Co. LLC
T3 sequence (P27338 1-520): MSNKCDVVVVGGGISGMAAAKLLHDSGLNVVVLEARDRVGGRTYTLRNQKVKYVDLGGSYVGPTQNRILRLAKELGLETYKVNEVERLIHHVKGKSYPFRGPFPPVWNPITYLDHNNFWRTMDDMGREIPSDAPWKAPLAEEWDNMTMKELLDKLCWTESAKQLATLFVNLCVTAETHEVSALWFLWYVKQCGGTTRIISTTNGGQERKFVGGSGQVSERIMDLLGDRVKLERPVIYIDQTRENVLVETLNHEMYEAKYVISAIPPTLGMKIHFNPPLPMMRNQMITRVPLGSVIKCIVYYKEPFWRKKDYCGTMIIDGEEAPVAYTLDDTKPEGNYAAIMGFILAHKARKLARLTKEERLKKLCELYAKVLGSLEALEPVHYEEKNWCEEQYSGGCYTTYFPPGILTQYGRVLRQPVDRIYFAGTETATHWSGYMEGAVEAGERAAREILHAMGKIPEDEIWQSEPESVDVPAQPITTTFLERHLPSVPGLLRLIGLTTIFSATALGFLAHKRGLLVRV
The experiment in a line: Measurement of MAO-B inhibitory activity (MAO-Glo Assay). As to the method: (2) Measurement of MAO-B Inhibitory Activity
The MAO-B inhibitory activity evaluation described below followed the protocol of MAO-Glo (registered trademark) Assay of Promega KK.
as §1, with “glycerol, 10% DMSO)” for “glycerol)”, “MAO-B” for “MAO-A”, “(16” for “(160”
The count of the MAO-B enzyme reaction mixture under compound non-addition conditions is indicated as control, and the count under compound non-addition and MAO-B enzyme non-addition conditions is indicated as blank.

Where a name gives a salt, the structure may show the parent alone.

In the case of `O=C(Nc1ccc([C@@H]2C[C@H]2NCc2ccccc2)cc1)c1ccccc1` (relative stereo) [Example 1, N-{4-[trans-2-(benzylamino)cyclopropyl]phenyl}benzamide], the IC50 at human LSD1(171-852) was below 0.1 µM; against MAO-A, 3.8 µM; at MAO-B, 9.7 µM.

Consider `CCCCCCCCN[C@@H]1C[C@H]1c1ccc(NC(=O)c2ccccc2)cc1` (relative stereo) [Example 2, N-{4-[trans-2-(octylamino)cyclopropyl]phenyl}benzamide], for which the IC50 at human LSD1(171-852) is 0.2 µM; against MAO-A, 9.3 µM; against MAO-B it was above 10 µM.

In the case of `O=C(Nc1ccc([C@@H]2C[C@H]2NCc2ccccc2)cc1)c1cccc(Br)c1` (relative stereo) [Example 3, N-{4-[trans-2-(benzylamino)cyclopropyl]phenyl}-3-bromobenzamide], the IC50 on human LSD1(171-852) is below 0.1 µM; on MAO-A it was 4.4 µM; against MAO-B it was 9 µM.

Consider `CCCCCCCCN[C@@H]1C[C@H]1c1ccc(NC(=O)c2cccc(Br)c2)cc1` (relative stereo) [Example 4, 3-bromo-N-{4-[trans-2-(octylamino)cyclopropyl]phenyl}benzamide], for which the values for the IC50 on human LSD1(171-852), at MAO-A and against MAO-B were 0.24 µM, above 10 µM and above 10 µM, respectively.

Turning to `CN1CCC(N[C@@H]2C[C@H]2c2ccc(NC(=O)c3cccc(Br)c3)cc2)CC1` (relative stereo) [Example 5, 3-bromo-N-(4-{trans-2-[(1-methylpiperidin-4-yl)amino]cyclopropyl}phenyl)benzamide], the values for the IC50 on human LSD1(171-852), against MAO-A and on MAO-B were below 0.1 µM, 7.7 µM and above 10 µM, respectively.

In the case of `COc1ccc(CN[C@@H]2C[C@H]2c2ccc(NC(=O)c3cccc(Br)c3)cc2)cc1OC` (relative stereo) [Example 6, 3-bromo-N-(4-{trans-2-[(3,4-dimethoxybenzyl)amino]cyclopropyl}phenyl)benzamide], the IC50 was below 0.1 µM at human LSD1(171-852), above 10 µM at MAO-A and above 10 µM at MAO-B.

For the molecule `Cc1cccc(C(=O)Nc2ccc([C@@H]3C[C@H]3NCc3ccccc3)cc2)c1` (relative stereo) [Example 7, N-{4-[trans-2-(benzylamino)cyclopropyl]phenyl}-3-methylbenzamide], the IC50 is below 0.1 µM on human LSD1(171-852), 5.6 µM at MAO-A and above 10 µM against MAO-B.

As for `O=C(Nc1ccc([C@@H]2C[C@H]2NCc2ccccc2)cc1)c1cccc(C(F)(F)F)c1` (relative stereo) [Example 8, N-{4-[trans-2-(benzylamino)cyclopropyl]phenyl}-3-(trifluoromethyl)benzamide], the IC50 is below 0.1 µM at human LSD1(171-852), 5.8 µM against MAO-A and above 10 µM against MAO-B.

For the molecule `CC(C)(C)c1cccc(C(=O)Nc2ccc([C@@H]3C[C@H]3NCc3ccccc3)cc2)c1` (relative stereo) [Example 9, N-{4-[trans-2-(benzylamino)cyclopropyl]phenyl}-3-tert-butylbenzamide], the IC50 on human LSD1(171-852) was 0.28 µM; against MAO-A, above 10 µM; at MAO-B, above 10 µM.

Consider `O=C(Nc1ccc([C@@H]2C[C@H]2NCc2ccccc2)cc1)c1cccc(Oc2ccccc2)c1` (relative stereo) [Example 10, N-{4-[trans-2-(benzylamino)cyclopropyl]phenyl}-3-phenoxybenzamide], for which the IC50 on human LSD1(171-852) is 0.14 µM; at MAO-A, 3.3 µM; against MAO-B, above 10 µM.

For the molecule `O=C(Nc1ccc([C@@H]2C[C@H]2NCc2ccccc2)cc1)c1cccc(OCc2ccccc2)c1` (relative stereo) [Example 11, N-{4-[trans-2-(benzylamino)cyclopropyl]phenyl}-3-(benzyloxy)benzamide hydrochloride], the IC50 was 0.15 µM on human LSD1(171-852), 2.4 µM against MAO-A and above 10 µM at MAO-B.

As to `O=C(Nc1ccc([C@@H]2C[C@H]2NCc2cccnc2)cc1)c1ccccc1` (relative stereo) [Example 12, N-(4-{trans-2-[(pyridin-3-ylmethyl)amino]cyclopropyl}phenyl)-benzamide bis(trifluoroacetate)], the IC50 at human LSD1(171-852) was below 0.1 µM; at MAO-A, 4.7 µM; at MAO-B, above 10 µM.

With `O=C(Nc1ccc([C@@H]2C[C@H]2NCC2CC2)cc1)c1cc(C(F)(F)F)ccc1F` (relative stereo) [Example 73, N-(4-{trans-2-[(cyclopropylmethyl)amino]cyclopropyl}phenyl)-2-fluoro-5-(trifluoromethyl)benzamide hydrochloride], the IC50 is below 0.1 µM at human LSD1(171-852) and 8.1 µM on MAO-B.

In the case of `Cn1cc(C(=O)Nc2ccc([C@@H]3C[C@H]3NCC3CC3)cc2)cn1` (relative stereo) [Example 163, N-(4-{trans-2-[(cyclopropylmethyl)amino]cyclopropyl}phenyl)-1-methyl-1H-pyrazole-4-carboxamide hydrochloride], the IC50 against MAO-A and against MAO-B was above 10 µM each time.

Turning to `O=C(Nc1ccc([C@H]2C[C@@H]2NCC2CC2)cc1)c1ccc(-c2ccccc2)cc1` (single isomer, unassigned) [Example 165, N-(4-{(1R,2S) or (1S,2R)-2-[(cyclopropylmethyl)amino]cyclopropyl}phenyl)biphenyl-4-carboxamide hydrochloride], the IC50 against MAO-A and on MAO-B was above 10 µM in each case.

Take `O=C(Nc1ccc([C@@H]2C[C@H]2NCC2CC2)cc1)c1ccc(-c2ccccc2)cc1` (single isomer, unassigned) [Example 166, N-(4-{(1S,2R) or (1R,2S)-2-[(cyclopropylmethyl)amino]cyclopropyl}phenyl)biphenyl-4-carboxamide hydrochloride]: the IC50 at MAO-A and against MAO-B was above 10 µM each time.
